Experimental findings from article PMC4942689, “Deciphering the function of the CNGB1b subunit in olfactory CNG channels” (Scientific Reports, 2016) are described below.

pEC50: −log10 of the molar value.

One experiment addresses T1, CNGA2RE:A4RE:B1b (Rattus norvegicus, UniProt A0A8I5ZN27+Q00195+Q64359, R430E/R538E).
T1 construct: expressed in transfected cells; host or cells: Xenopus laevis oocytes (cRNA injection), excised inside-out patches
Kind of experiment: Ligand binding, confocal patch-clamp fluorometry. Details: key to Ligand binding to CNGA4 / Ligand binding to CNGB1b: +: ligand binding to the respective modulatory subunits was either observed or not; −: ligand binding to the respective modulatory subunits was either observed or not. The source says:
(§1) The channels to be studied were expressed in Xenopus oocytes. We first tested the subunit composition in our channels when coexpressing different combinations of subunits by single-channel recordings. For CNGA2:A4, CNGA2:B1b and CNGA2:A4:B1b channels we exclusively obtained the specific and easily distinguishable single-channel activity reported earlier when injecting respective amounts of RNA[7][13]. We therefore assumed that the channels formed had always the expected subunit composition. The specific binding of cyclic nucleotides and the activation of the CNG channels were measured in parallel by means of confocal patch-clamp fluorometry in excised patches, using fluorescent cyclic nucleotide derivatives. The method has been described previously.
(§2) To verify the hypothesis that the CNGB1b subunit in CNGA2:A4:B1b channels binds cyclic nucleotides, we coexpressed CNGB1b with CNGA4RE and either CNGA2RE or CNGA2TM and measured ligand binding in the presence of 10 μM fcGMP. […] To verify the specificity of the binding to the CNGB1b subunit in these heterotetrameric channels, we coexpressed the CNGB1bRE subunit with CNGA2RE and CNGA4RE.
(§3) The ligand binding was measured in macropatches by patch-clamp fluorometry[41][42] combined with confocal microscopy. […] Recordings were performed with an LSM 510 or 710 confocal microscope (Zeiss, Jena, Germany) and were triggered by the ISO3 software (MFK, Niedernhausen, Germany). To distinguish between the fluorescence of the unbound ligands from that of the bound ligands, a second dye, DY647 (Dyomics, Jena, Germany), was added to the bath solution. The 543-nm and 633-nm lines of a He-Ne laser were used to excite fcAMP/fcGMP and DY647, respectively. The method of confocal patch-clamp fluorometry has been described in detail previously.

Another experiment has as its target T2, CNGA2RE:A4RE:B1bRE (Rattus norvegicus, UniProt A0A8I5ZN27+Q00195+Q64359, R1106E/R430E/R538E).
T2 construct: expressed in transfected cells; host or cells: Xenopus laevis oocytes (cRNA injection), excised inside-out patches
Put plainly: Ligand binding, confocal patch-clamp fluorometry. More on the design: key to Ligand binding to CNGA4 / Ligand binding to CNGB1b: +: ligand binding to the respective modulatory subunits was either observed or not; −: ligand binding to the respective modulatory subunits was either observed or not.
Description: as §1, §2, §3
In general terms: The patch-clamp technique gives a direct electrical read-out from membranes.

A further experiment has as its target T3, CNGA2:A4:B1b channels (Rattus norvegicus, UniProt A0A8I5ZN27+Q00195+Q64359).
T3 construct: expressed in transfected cells; host or cells: Xenopus laevis oocytes (cRNA injection 2:1:1), excised inside-out patches
Kind of experiment: Concentration-activation relationship, inside-out patch-clamp. The experiment is classed as biochemical. The conditions noted are these: CNGA2:A4:B1b. On the procedure:
Patch-clamp experiments were performed using an Axopatch 200B amplifier (Molecular Devices LLC, CA, U.S.A.) in the inside-out configuration. The patch pipettes for recording of macroscopic currents were pulled from borosilicate glass tubing (outer diameter 2.0 mm, inner diameter 1.0 mm; Hilgenberg GmbH, Germany). The initial resistance was 0.7–1.3 MΩ. The patches were formed as pushed inside-out patches. […] Cyclic nucleotide concentration jumps were performed using a double-barreled glass pipette mounted on a piezo-driven device. Intracellular (bath) and extracellular (pipette) solutions contained (mM) 150 KCl, 1 EGTA, 5 Hepes, pH = 7.4 with KOH. […] Currents in the absence of the cyclic nucleotide were subtracted. All patches included in this study were first tested for channel expression in the presence of a saturating ligand concentration. Only patches with large current, i.e. a large number of channels, were included in our statistics. The currents were measured at +10 mV or, if mentioned, at +100 mV.
Fits of equations to data points were performed with the 8.1G® software (OriginLab Corporation, Northampton, U.S.A.). Concentration-activation relationships were obtained by relating the actual current amplitude, I, to the maximum current amplitude elicited by a saturating concentration of ligand, Imax, and plotting this ratio as function of the ligand concentration, x. The concentration-activation data were fitted using the Hill equation
where EC50 is the ligand concentration of half maximum effect and H the Hill coefficient.
In fHcAMP the dye DY547 is coupled to
(b) Concentration-activation relationships of the CNGA2:A4:B1b channels activated by either
The currents were recorded […]

[1] abbreviates: 10 μM, construct CNGA2RE:A4RE:B1b.
Where [2] appears, read: 10 μM, construct CNGA2RE:A4RE:B1bRE.

T1 sequence (Q00195 whole entry R538E): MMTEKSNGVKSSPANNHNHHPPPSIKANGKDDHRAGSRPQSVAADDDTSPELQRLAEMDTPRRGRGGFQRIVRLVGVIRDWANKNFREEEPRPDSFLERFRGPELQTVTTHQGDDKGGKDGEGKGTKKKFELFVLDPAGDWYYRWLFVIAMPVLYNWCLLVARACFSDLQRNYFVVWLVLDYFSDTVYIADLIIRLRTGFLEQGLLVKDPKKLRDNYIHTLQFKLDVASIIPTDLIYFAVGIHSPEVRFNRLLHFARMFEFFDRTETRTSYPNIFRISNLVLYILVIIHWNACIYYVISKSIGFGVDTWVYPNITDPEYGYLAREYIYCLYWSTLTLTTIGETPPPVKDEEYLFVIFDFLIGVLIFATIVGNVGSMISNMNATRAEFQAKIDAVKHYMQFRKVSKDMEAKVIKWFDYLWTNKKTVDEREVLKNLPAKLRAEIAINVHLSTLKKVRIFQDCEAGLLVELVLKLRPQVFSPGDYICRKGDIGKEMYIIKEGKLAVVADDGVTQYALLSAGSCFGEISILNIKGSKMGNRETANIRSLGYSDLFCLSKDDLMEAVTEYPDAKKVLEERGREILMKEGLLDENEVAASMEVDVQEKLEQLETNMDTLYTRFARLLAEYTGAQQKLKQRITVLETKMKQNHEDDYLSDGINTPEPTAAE
T1 sequence (Q64359 whole entry R430E): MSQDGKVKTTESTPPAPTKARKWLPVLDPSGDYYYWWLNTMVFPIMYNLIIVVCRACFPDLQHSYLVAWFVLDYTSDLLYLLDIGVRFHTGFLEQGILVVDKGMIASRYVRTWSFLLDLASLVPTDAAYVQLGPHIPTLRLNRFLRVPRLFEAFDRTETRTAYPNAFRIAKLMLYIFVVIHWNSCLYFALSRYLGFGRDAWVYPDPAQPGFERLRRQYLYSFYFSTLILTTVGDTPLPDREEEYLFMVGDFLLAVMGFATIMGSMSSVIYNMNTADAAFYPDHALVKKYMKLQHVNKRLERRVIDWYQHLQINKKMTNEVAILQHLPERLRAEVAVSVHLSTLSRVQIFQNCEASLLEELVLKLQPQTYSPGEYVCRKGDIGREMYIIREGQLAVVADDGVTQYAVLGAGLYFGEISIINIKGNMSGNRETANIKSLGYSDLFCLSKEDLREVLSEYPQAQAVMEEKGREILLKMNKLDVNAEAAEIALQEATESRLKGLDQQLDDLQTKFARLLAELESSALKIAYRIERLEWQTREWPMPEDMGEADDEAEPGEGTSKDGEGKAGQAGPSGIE
T1 sequence (A0A8I5ZN27 1-858 isoform A0A8I5ZN27-2, stated change not applied): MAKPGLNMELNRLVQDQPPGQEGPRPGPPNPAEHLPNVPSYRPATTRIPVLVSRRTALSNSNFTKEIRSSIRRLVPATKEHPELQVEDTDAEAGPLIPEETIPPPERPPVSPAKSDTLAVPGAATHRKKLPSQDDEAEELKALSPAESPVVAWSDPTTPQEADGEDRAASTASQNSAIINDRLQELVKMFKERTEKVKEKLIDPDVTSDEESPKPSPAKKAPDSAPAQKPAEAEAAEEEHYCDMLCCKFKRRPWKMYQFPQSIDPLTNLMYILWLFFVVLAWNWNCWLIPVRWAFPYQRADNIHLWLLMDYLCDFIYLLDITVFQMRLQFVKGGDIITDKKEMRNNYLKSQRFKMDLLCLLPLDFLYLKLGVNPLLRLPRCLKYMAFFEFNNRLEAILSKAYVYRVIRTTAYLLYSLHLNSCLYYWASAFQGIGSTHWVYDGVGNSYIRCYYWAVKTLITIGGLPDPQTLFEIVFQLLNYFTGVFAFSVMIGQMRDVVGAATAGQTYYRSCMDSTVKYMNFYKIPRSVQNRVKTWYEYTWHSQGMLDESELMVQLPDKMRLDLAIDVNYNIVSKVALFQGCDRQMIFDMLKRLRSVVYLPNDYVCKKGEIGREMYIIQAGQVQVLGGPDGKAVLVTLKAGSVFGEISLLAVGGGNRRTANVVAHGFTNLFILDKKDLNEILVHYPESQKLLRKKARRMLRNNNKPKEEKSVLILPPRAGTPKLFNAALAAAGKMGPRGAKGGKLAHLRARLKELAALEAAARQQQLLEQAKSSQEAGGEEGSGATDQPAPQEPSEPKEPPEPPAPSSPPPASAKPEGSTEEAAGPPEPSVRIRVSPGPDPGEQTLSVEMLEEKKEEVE
T2 sequence (Q00195 whole entry R538E): as the sequence (Q00195 whole entry R538E) above
T2 sequence (Q64359 whole entry R430E): as the sequence (Q64359 whole entry R430E) above
T2 sequence (A0A8I5ZN27 1-858 isoform A0A8I5ZN27-2 R657E): as the sequence (A0A8I5ZN27 1-858 isoform A0A8I5ZN27-2, stated change not applied) above, with R657E counted along it
T3 sequence (Q00195 whole entry): as the sequence (Q00195 whole entry R538E) above, with E538R counted along it
T3 sequence (Q64359 whole entry): as the sequence (Q64359 whole entry R430E) above, with E430R counted along it
T3 sequence (A0A8I5ZN27 1-858 isoform A0A8I5ZN27-2): as the sequence (A0A8I5ZN27 1-858 isoform A0A8I5ZN27-2, stated change not applied) above

Regarding 8-[DY-547]-AET-cGMP [fcGMP], on CNGA2RE:A4RE:B1b (10 μM fcGMP, CNGB1b with CNGA4RE and CNGA2RE), the “binding to the CNGB1b subunit (in words)” value was “robust binding”. Moreover, the “Ligand binding to CNGA4” value on CNGA2RE:A4RE:B1b (setting [1]) and at CNGA2RE:A4RE:B1bRE (setting [2]) was “−” throughout. Besides, the “Ligand binding to CNGB1b” value at CNGA2RE:A4RE:B1b (setting [1]) is “+”; on CNGA2RE:A4RE:B1bRE (setting [2]) it was “−”. Also, at CNGA2RE:A4RE:B1bRE (10 μM fcGMP, CNGB1bRE with CNGA2RE and CNGA4RE), the “binding (in words)” value is reported as “essentially diminished”.

Turning to `Nc1nc2c(ncn2[C@@H]2O[C@@H]3COP(=O)(O)O[C@H]3[C@H]2O)c(=O)[nH]1` [cGMP], the pEC50 at CNGA2:A4:B1b channels (Equation 1) was 6.12. On CNGA2:A4:B1b channels (Hill coefficient), this compound registered an H of 2.0.

For orientation: pEC50 means −log10 of the EC50, conventionally taken in molar units.
